In patent US20080269173A1, “Composition for Stimulating Growth of Dermal Papilla Cells and Promoting Hair Follicle Growth Comprising Vitamin C Derivatives” (Trichogene Inc., priority 2005, published 2008):

What was measured:
osteoblast = conditions: Hata et al., 1988; cited from earlier work
[1] = aqueous solution, general culture conditions; cited from earlier work
human dermal fibroblast = conditions: Hata et al., 1988; cited from earlier work
[2] = system: versican in the hair follicle; test: Immunostaining of versican in hair follicle; type: cell-based, human; conditions: 0.1 mM and 1 mM, 5 days
Procedure: The hair follicles were incubated for 5 days in the media treated with 0.1 mM and 1 mM Asc 2-P, and then their immunostaining experiments were conducted against versican.

dermal papilla cells [3] = test: Growth of cultured dermal papilla cells (MTT method); type: cell-based, human; conditions: 0.25 mM, 5 days
Procedure: The dermal papilla was isolated from a bulb of the severed hair follicles under the binocular microscope, and then transferred into a tissue culture dish. The dermal papilla was cultured at 37° C. for 5 days under a 5% CO2 atmosphere in the DMEM medium supplemented with penicillin (100 U/ml), streptomycin (100 μg/ml) and 20% heat-inactivated fetal bovine serum (FBS, Hyclone, USA), and then subcultured in the same condition. The dermal papilla cells were kept in the DMEM including 10% FBS after the subculture. The secondary subcultured cells were used in the present invention.
The dermal papilla cells were incubated overnight at a density of 5,000 cells/well in a 96-well plate containing a DMEM medium supplemented with 10% FBS. The medium was then exchanged to the DMEMs including varied concentrations of Asc 2-P and incubated for 5 days, and then the cell number was measured using a MTT method.

dermal papilla cells [4] = test: RT-PCR gene expression (mRNA) in dermal papilla cells; type: cell-based, human; conditions: 0.25 mM, 5 days
Procedure: The dermal papilla cells were incubated for 5 days in a medium including 0.25 mM Asc 2-P, and then their RNA was isolated using a TRIzol reagent (Gibco-BRL, Grand Island, N.Y.). cDNA was synthesized from the RNA using a cDNA synthesis kit containing superscript II reverse transcriptase and random hexamer (Gibco-BRL). The cDNA was amplified with sets of gene-specific primers (Table 1).
Gene expression levels of IGF-1 (insulin like growth factor 1), HGF (hepatocyte growth factor), VEGF (vascular endothelial growth factor), KGF (keratinocyte growth factor), collagen I, collagen III, versican and alkaline phosphatase (ALP) were analyzed in the present invention.

[5] = system: human anagen hair follicle; test: In vitro growth of isolated human anagen hair follicles (organ culture, length measurement); type: cell-based; conditions: 0.05 mM and 0.25 mM, 9 days, Williams E medium; P<0.05
Procedure: Biopsy samples were obtained from a […] region of scalp of a patient with androgenic alopecia during the hair transplantation operation with their approval in the Kyungpook National University hospital. The hair follicles were isolated and incubated according to the known method (Philpott et al., J Cell Sci. 97:463-471, 1990).
The anagen hair follicles were isolated from the scalp under a stereoscopic binocular microscope. Upper one third of the isolated anagen hair follicles were cut out, and lower two third of them were incubated at 37° C. in a Williams E medium (Sigma, USA) under a 5% CO2 atmosphere. The hair follicles were incubated for 9 days in a medium including Asc 2-P, and then their length was measured using a stereoscopic microscope.

| SMILES | growth of osteoblast (osteoblast) | stability [1] | growth of human dermal fibroblast (human dermal fibroblast) | expression of versican in the hair follicle (immunostaining) [2] | growth of dermal papilla cells (cell number, MTT) (dermal papilla cells [3]; 0.05 mM, 1 mM and 5 mM, P<0.05) | growth of dermal papilla cells relative to the control group (dermal papilla cells [3]; MTT) [times] | HGF mRNA (dermal papilla cells [4]) | IGF-1 mRNA (dermal papilla cells [4]) | KGF mRNA (dermal papilla cells [4]) | VEGF mRNA (dermal papilla cells [4]) | alkaline phosphatase (ALP) mRNA (dermal papilla cells [4]) | collagen I mRNA (dermal papilla cells [4]) | collagen III mRNA (dermal papilla cells [4]) | versican mRNA (dermal papilla cells [4]) | growth (length) of hair follicle [5] |
| --- | --- | --- | --- | --- | --- | --- | --- | --- | --- | --- | --- | --- | --- | --- | --- |
| O=C1O[C@H]([C@@H](O)CO)C(O)=C1O [vitamin C, L-ascorbic acid] | stimulates growth | rapidly oxidized and degraded | stimulates growth |  |  |  |  |  |  |  |  |  |  |  |  |
| O=C1O[C@H]([C@@H](O)CO)C(O)=C1OP(=O)(O)O [Asc 2-P, L-ascorbic acid-2-phosphate magnesium] | stimulates growth | more stable than the vitamin C | stimulates growth | increased | significantly stimulated growth | 2.4 | no effect | increased | no effect | no effect | increased | no effect | no effect | increased | significantly grown |
